Source: ChEMBL document CHEMBL2440076, “New triarylpyrazoles as broad-spectrum anticancer agents: design, synthesis, and biological evaluation” (Eur J Med Chem, 2013)

Experiments:
NCI-H23 [1] = assay: Growth inhibition of human NCI-H23 cells assessed as cell growth at 5X10'-9 M after 48 hrs by sulforhodamine B assay; format: functional; settings: NCI-H23, 48 h, read-out: Activity
ACHN [2] = assay: Growth inhibition of human ACHN cells assessed as cell growth at 5X10'-6 M after 48 hrs by sulforhodamine B assay; format: functional; settings: read-out: Activity
IGROV-1 = assay: Growth inhibition of human IGROV1 cells assessed as cell growth at 5X10'-7 M after 48 hrs by sulforhodamine B assay; format: functional; settings: IGROV-1, 48 h, read-out: Activity
CCRF-CEM [3] = assay: Growth inhibition of human CCRF-CEM cells assessed as cell growth at 5X10'-6 M after 48 hrs by sulforhodamine B assay; format: functional; settings: read-out: Activity
NCI-H23 [4] = assay: Growth inhibition of human NCI-H23 cells assessed as cell growth at 5X10'-5 M after 48 hrs by sulforhodamine B assay; format: functional; settings: NCI-H23, 48 h, read-out: Activity
M14 [5] = assay: Growth inhibition of human M14 cells assessed as cell growth at 10 uM after 48 hrs by sulforhodamine B assay; format: functional; settings: M14, 48 h, read-out: Activity
RXF 393 [6] = assay: Growth inhibition of human RXF393 cells assessed as cell growth at 5X10'-8 M after 48 hrs by sulforhodamine B assay; format: functional; settings: RXF 393, 48 h, read-out: Activity
[7] = Growth inhibition of human Hs 578T cells assessed as cell growth at 5X10'-9 M after 48 hrs by sulforhodamine B assay; format: functional; settings: read-out: Activity
SNB-19 [8] = assay: Growth inhibition of human SNB19 cells after 48 hrs by sulforhodamine B assay; format: functional; settings: SNB-19, 48 h
NCI-H460 = assay: Growth inhibition of human NCI-H460 cells assessed as cell growth at 10 uM after 48 hrs by sulforhodamine B assay; format: functional; settings: NCI-H460, 48 h, read-out: Activity
MDA-MB-231 = assay: Growth inhibition of human MDA-MB-231 cells assessed as cell growth at 5X10'-7 M after 48 hrs by sulforhodamine B assay; format: functional; settings: MDA-MB-231, 48 h, read-out: Activity
RXF 393 [9] = assay: Growth inhibition of human RXF393 cells assessed as cell growth at 5X10'-9 M after 48 hrs by sulforhodamine B assay; format: functional; settings: RXF 393, 48 h, read-out: Activity
HCT-116 [10] = assay: Growth inhibition of human HCT116 cells after 48 hrs by sulforhodamine B assay; format: functional; settings: HCT-116, 48 h
SNB-19 [11] = assay: Growth inhibition of human SNB19 cells assessed as cell growth at 5X10'-5 M after 48 hrs by sulforhodamine B assay; format: functional; settings: SNB-19, 48 h, read-out: Activity
CCRF-CEM [12] = assay: Growth inhibition of human CCRF-CEM cells assessed as cell growth at 5X10'-9 M after 48 hrs by sulforhodamine B assay; format: functional; settings: read-out: Activity
SF-268 [13] = assay: Growth inhibition of human SF268 cells assessed as cell growth at 10 uM after 48 hrs by sulforhodamine B assay; format: functional; settings: SF-268, 48 h, read-out: Activity
M14 [14] = assay: Growth inhibition of human M14 cells assessed as cell growth at 5X10'-7 M after 48 hrs by sulforhodamine B assay; format: functional; settings: M14, 48 h, read-out: Activity
Malme-3M = assay: Growth inhibition of human MALME-3M cells assessed as cell growth at 5X10'-5 M after 48 hrs by sulforhodamine B assay; format: functional; settings: read-out: Activity
OVCAR-4 [15] = assay: Growth inhibition of human OVCAR4 cells after 48 hrs by sulforhodamine B assay; format: functional; settings: OVCAR-4, 48 h
LOX IMVI = assay: Growth inhibition of human LOXIMVI cells after 48 hrs by sulforhodamine B assay; format: functional
SF-268 [16] = assay: Growth inhibition of human SF268 cells assessed as cell growth at 5X10'-7 M after 48 hrs by sulforhodamine B assay; format: functional; settings: SF-268, 48 h, read-out: Activity
SN12C = assay: Growth inhibition of human SN12C cells assessed as cell growth at 10 uM after 48 hrs by sulforhodamine B assay; format: functional; settings: read-out: Activity
A498 = assay: Growth inhibition of human A498 cells assessed as cell growth at 5X10'-5 M after 48 hrs by sulforhodamine B assay; format: functional; settings: A498, 48 h, read-out: Activity
OVCAR-4 [17] = assay: Growth inhibition of human OVCAR4 cells assessed as cell growth at 5X10'-9 M after 48 hrs by sulforhodamine B assay; format: functional; settings: OVCAR-4, 48 h, read-out: Activity
ACHN [18] = assay: Growth inhibition of human ACHN cells assessed as cell growth at 5X10'-8 M after 48 hrs by sulforhodamine B assay; format: functional; settings: read-out: Activity
DU-145 = assay: Growth inhibition of human DU145 cells assessed as cell growth at 5X10'-7 M after 48 hrs by sulforhodamine B assay; format: functional; settings: DU-145, 48 h, read-out: Activity
K562 [19] = assay: Growth inhibition of human K562 cells assessed as cell growth at 5X10'-7 M after 48 hrs by sulforhodamine B assay; format: functional; settings: K562, 48 h, read-out: Activity
NCI-H226 = assay: Growth inhibition of human NCI-H226 cells assessed as cell growth at 5X10'-6 M after 48 hrs by sulforhodamine B assay; format: functional; settings: NCI-H226, 48 h, read-out: Activity
MDA-MB-468 [20] = assay: Growth inhibition of human MDA-MB-468 cells assessed as cell growth at 5X10'-8 M after 48 hrs by sulforhodamine B assay; format: functional; settings: MDA-MB-468, 48 h, read-out: Activity
HCT-116 [21] = assay: Growth inhibition of human HCT116 cells assessed as cell growth at 5X10'-9 M after 48 hrs by sulforhodamine B assay; format: functional; settings: HCT-116, 48 h, read-out: Activity
U-251 = assay: Growth inhibition of human U251 cells assessed as cell growth at 5X10'-6 M after 48 hrs by sulforhodamine B assay; format: functional; settings: U-251, 48 h, read-out: Activity
PC-3 = assay: Growth inhibition of human PC3 cells after 48 hrs by sulforhodamine B assay; format: functional, cell-based; settings: PC-3, 48 h
NCI-H322M = assay: Growth inhibition of human NCI-H322M cells after 48 hrs by sulforhodamine B assay; format: functional
MDA-MB-468 [22] = assay: Growth inhibition of human MDA-MB-468 cells after 48 hrs by sulforhodamine B assay; format: functional, cell-based; settings: MDA-MB-468, 48 h
UO-31 = assay: Growth inhibition of human UO31 cells after 48 hrs by sulforhodamine B assay; format: functional; settings: UO-31, 48 h
K562 [23] = assay: Growth inhibition of human K562 cells assessed as cell growth at 5X10'-6 M after 48 hrs by sulforhodamine B assay; format: functional; settings: K562, 48 h, read-out: Activity
[24] = read-out: LC50 (the source's name)

## COc1cc(-c2nn(-c3cccc(NC(=O)Nc4cccc(C(F)(F)F)c4)c3)cc2-c2ccncc2)ccc1Cl
NCI-H23 [1]
  growth at 0.005 µM: 96%
ACHN [2]
  growth at 5 µM: -8%
IGROV-1
  growth at 0.5 µM: 85%
CCRF-CEM [3]
  growth at 5 µM: -1%
NCI-H23 [4]
  growth at 50 µM: -37%
M14 [5]
  growth at 10 µM: -61.5%
RXF 393 [6]
  growth at 0.05 µM: 101%
[7]
  growth at 0.005 µM: 96%
SNB-19 [8]
  GI50: 981 nM
  LC50 (concentration killing 50% of cells): > 50000 nM
  TGI: 4000 nM
NCI-H460
  growth at 10 µM: -7.91%
MDA-MB-231
  growth at 0.5 µM: 73%
RXF 393 [9]
  growth at 0.005 µM: 100%
HCT-116 [10]
  GI50: 900 nM
  TGI: 7170 nM
HCT-116 [10]; [24]
  CC50: > 50000 nM
SNB-19 [11]
  growth at 50 µM: -18%
CCRF-CEM [12]
  growth at 0.005 µM: 104%
SF-268 [13]
  growth at 10 µM: 2.35%
M14 [14]
  growth at 0.5 µM: 73%
Malme-3M
  growth at 50 µM: -51%
OVCAR-4 [15]
  GI50: 1100 nM
  LC50 (concentration killing 50% of cells): > 50000 nM
  TGI: 2100 nM
LOX IMVI
  GI50: 789 nM
  LC50: 3460 nM
  TGI: 1650 nM
SF-268 [16]
  growth at 0.5 µM: 87%
SN12C
  growth at 10 µM: 7.22%
A498
  growth at 50 µM: -20%
OVCAR-4 [17]
  growth at 0.005 µM: 99%
ACHN [18]
  growth at 0.05 µM: 97%
DU-145
  growth at 0.5 µM: 90%
K562 [19]
  growth at 0.5 µM: 53%
NCI-H226
  growth at 5 µM: 7%
MDA-MB-468 [20]
  growth at 0.05 µM: 92%
HCT-116 [21]
  growth at 0.005 µM: 101%
U-251
  growth at 5 µM: -86%
PC-3
  GI50: 372 nM
  IC50: 370 nM
  TGI: 2510 nM
PC-3; [24]
  CC50: > 50000 nM
NCI-H322M
  GI50: 1210 nM
  TGI: 4730 nM
NCI-H322M; [24]
  CC50: > 50000 nM
MDA-MB-468 [22]
  GI50: 598 nM
  IC50: 600 nM
  TGI: 2160 nM
MDA-MB-468 [22]; [24]
  CC50: 50000 nM
UO-31
  GI50: 702 nM
  TGI: 3210 nM
UO-31; [24]
  CC50: > 50000 nM
K562 [23]
  growth at 5 µM: 3%
